Results on four molecules are retold here after the NIST ThermoML archive (doi:10.1021/je049711t).

Numbers after ± are expanded uncertainties.

The nature of this series: refractive index (Na D-line) (dimensionless). The settings on record: 293.15 K; 101.33 kPa; Liquid; Standard Abbe refractometry.
The refractive index is the speed of light in vacuum divided by its phase velocity in the sample. `CC(=O)O` [acetic acid]: the refractive index came out at 1.3719 ± 0.0007. The result for `CCCCCOC(C)=O` [pentyl ethanoate] reads 1.4021 ± 0.0008; that for `O` [water], 1.333 ± 0.0008; that for `CC(=O)OC(C)C` [1-methylethyl ethanoate], 1.3772 ± 0.0008.
